Reference: paper PMC8569681, “New Pyrimidine and Pyridine Derivatives as Multitarget Cholinesterase Inhibitors: Design, Synthesis, and In Vitro and In Cellulo Evaluation” (ACS Chemical Neuroscience, 2021)
Like-named read-outs stand apart in the source and are kept apart here.

Columns and labels:
[1] = biological target: T1, equine BChE (eqBChE) (Equus caballus, UniProt P81908); test: Percent inhibition of eqBChE, Ellman's spectrophotometric method; format: biochemical; settings: for inhibition at 0.9 µM: [I] 900 nM
T1 construct: purchased Sigma-Aldrich (Milan, Italy)
Description: On the synthesized compounds, enzymatic inhibition studies were carried out toward Electrophorus electricus AChE (EeAChE) and equine BChE (eqBChE) according to Ellman’s spectrophotometric method.[25]
(§1) All other chemical and biological reagents and solvents used were of the highest analytical, commercially available grade. The water, utilized for the preparation of the phosphate buffer and of the compound solutions, was distilled and filtered on nylon membrane filters with a 0.2 μm pore size with the Millipore Filtration apparatus before each use. Micropipettes Labmate (BRAND Dig. 10–100 μL; Dig. 100–1000 μL; Dig. 0.1–2 μL) and Transferpette (HIGH TECH LAB LM200: 20–200 μL; LM5000: 1000–5000 μL) were used to collect the samples. The assays were carried out by a double beam UV–vis Lambda 40 Perkin Elmer spectrophotometer using optical polystyrene cuvettes (10 × 10 × 45 mm, 340–800 nm optical transparency); each measure was repeated at least in triplicate. […] The spectrophotometric method of Ellman[25] with minor modifications was used to evaluate the inhibition of ChEs. […] EeAChE and eqBChE were periodically tested to evaluate the effective enzymatic activity.
(§2) For all the synthesized compounds, the percentages of inhibition toward AChE of Electrophorus electricus (EeAChE) and equine BChE (eqBChE) were evaluated.
(§3) Three milliliters of a solution in 0.1 M phosphate buffer (pH = 7.4) containing DTNB (0.25 mM) and EeAChE (0.083 UmL^–1) or eqBChE (0.083 UmL^–1) was placed in a polystyrene cuvette of 1.0 cm path length; 1 μL of a solution in DMSO of the tested compound was added to obtain a cuvette concentration range of 9–0.09 μM. With this solution, the blank was made. […] Each experiment was repeated at least in triplicate.

[2] = biological target: T2, Electrophorus electricus AChE (EeAChE) (Electrophorus electricus, UniProt O42275); test: Percent inhibition of EeAChE, Ellman's spectrophotometric method; format: biochemical; settings: for inhibition at 90 µM: read-out: % inhibition vs EeAChE ± SD (90 uM), 90 uM; for inhibition at 900 µM: read-out: % inhibition vs EeAChE ± SD (900 uM), 900 uM; for inhibition at 0.9 µM: read-out: % inhibition vs EeAChE ± SD, [I] 900 nM
T2 construct: purchased Sigma-Aldrich (Milan, Italy)
Description: as §1, §2
as §3, with “solution in DMSO of the tested compound was added to obtain a cuvette concentration range of 9–0.09 μM.” left out

[3] = Antioxidant activity, DPPH spectrophotometric method; settings: DPPH, absorbance at 515 nm
Description: The antioxidant activity assays were carried out according to the 2,2-diphenyl-1-picrylhydrazyl (DPPH) spectrophotometric method.[34] Initially, to assess whether the compounds had antioxidant activity and to define the time required by each antioxidant to reach the steady state, the reduction in absorbance over time at 515 nm of a solution of DPPH mixed with the tested compound was recorded until reaching the plateau. […] The value of EC50 can be extrapolated by plotting the percentage of residual DPPH at the steady state as a function of the molar ratio of the antioxidant to initial DPPH.
2,2-Diphenyl-1-picrylhydrazyl (DPPH), MeOH, and ascorbic acid, used as the reference standard, were purchased from Sigma-Aldrich. Micropipettes Labmate (BRAND Dig. 10–100 μL; Dig. 100–1000 μL) and Transferpette (HIGH TECH LAB LM200: 20–200 μL; LM5000: 1000–5000 μL) were used to collect the samples. The assays were carried out by a double beam UV–vis Lambda 40 Perkin Elmer spectrophotometer using optical polystyrene cuvettes (10 × 10 × 45 mm, 340–800 nm optical transparency); each measure was repeated at least in triplicate. For data processing, UV-WIN Lab version 2.0 (Perkin Elmer Corporation) was used. The antioxidant activity of the tested compounds was evaluated by the DPPH method[34] based on the ability of antioxidant compounds to react with the stable radical DPPH, which has a maximum absorption at about 515 nm. Thus, by measuring the decrease in absorbance over time of DPPH solutions to which increasing amounts of the tested compound are added, the antioxidant activity of the compound can be determined.
[…]. To 2.90 mL of MeOH, 60 μL of a DPPH solution in MeOH (∼1.2 mM) and 40 μL of an antioxidant solution in MeOH (4.5 mM) were added to have in the cuvette concentrations of DPPH equal to about 25 μM and of antioxidant equal to 60 μM. The exact DPPH concentration was calculated through the Lambert–Beer relation, known the extinction coefficient of DPPH at 515 nm, equal to 1.25 × 10^4.[34] The absorbance was recorded until the plateau was reached.
. To obtain the initial DPPH concentration, 2.94 mL of MeOH and 60 μL of the DPPH solution in MeOH (∼1.2 mM) were placed in a polystyrene cuvette and the absorbance was recorded at 515 nm. The exact initial DPPH concentration was calculated through the Lambert–Beer relation. For subsequent measurements, the cuvettes were set up by introducing the opportune volume of MeOH to reach a total volume of 3 mL, 60 μL of the DPPH solution in MeOH (∼1.2 mM, to have a final concentration of ∼25 μM), and the appropriate volumes of the antioxidant stock solution in MeOH to have final concentrations between 1.5 and 12 μM for 20 and between 5 and 60 μM for 18 and 30; the absorbance was recorded at 515 nm at the plateau and then after 1 min for compound 20 and after 90 min for compounds 18 and 30. Each measure was repeated four times. With absorbance data, the percentages of residual DPPH at steady state were obtained using the following equation: [drawing 3] where Ac is the average of absorbance in the presence of antioxidant at plateau and A0 is the average of the initial absorbance of DPPH.
The same procedure was performed using ascorbic acid as the antioxidant at cuvette concentrations between 1.5 and 18 μM, recording the absorbance at 515 nm after 2 min from the preparation of the cuvettes.

[4] = [I] 9 μM, 0.0833 U/mL enzyme, 100 μM acetylthiocholine, read-out: % inhibition vs eqBChE ± SD
[5] = read-out: % inhibition vs eqBChE ± SD (9 uM), 9 uM, supplement csv
[6] = read-out: % inhibition vs EeAChE ± SD (9 uM), 9 uM, supplement csv
[7] = read-out: % inhibition vs EeAChE ± SD, [I] 9 μM, 0.0833 U/mL enzyme, 100 μM acetylthiocholine
[8] = 0.0833 U/mL enzyme, 100 μM acetylthiocholine, read-out: % inhibition vs eqBChE ± SD
[9] = 0.0833 U/mL enzyme, 100 μM acetylthiocholine

T2 sequence (O42275 24-633): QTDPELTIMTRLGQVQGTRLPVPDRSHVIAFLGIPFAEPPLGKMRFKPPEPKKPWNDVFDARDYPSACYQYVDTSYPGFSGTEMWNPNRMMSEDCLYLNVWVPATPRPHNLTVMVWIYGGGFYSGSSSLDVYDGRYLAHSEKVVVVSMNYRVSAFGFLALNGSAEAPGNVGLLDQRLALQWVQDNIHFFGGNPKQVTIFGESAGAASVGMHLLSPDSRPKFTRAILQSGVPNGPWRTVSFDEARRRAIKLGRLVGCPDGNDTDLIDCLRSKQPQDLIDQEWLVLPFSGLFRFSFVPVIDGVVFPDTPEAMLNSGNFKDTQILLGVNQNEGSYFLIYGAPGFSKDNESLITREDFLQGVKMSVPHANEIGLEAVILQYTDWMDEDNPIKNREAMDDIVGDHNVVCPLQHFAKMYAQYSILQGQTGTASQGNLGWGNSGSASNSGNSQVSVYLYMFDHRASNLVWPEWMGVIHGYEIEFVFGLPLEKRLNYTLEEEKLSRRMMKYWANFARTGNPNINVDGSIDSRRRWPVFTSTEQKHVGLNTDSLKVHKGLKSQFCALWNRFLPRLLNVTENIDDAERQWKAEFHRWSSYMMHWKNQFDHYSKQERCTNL
T1 sequence (P81908 whole entry): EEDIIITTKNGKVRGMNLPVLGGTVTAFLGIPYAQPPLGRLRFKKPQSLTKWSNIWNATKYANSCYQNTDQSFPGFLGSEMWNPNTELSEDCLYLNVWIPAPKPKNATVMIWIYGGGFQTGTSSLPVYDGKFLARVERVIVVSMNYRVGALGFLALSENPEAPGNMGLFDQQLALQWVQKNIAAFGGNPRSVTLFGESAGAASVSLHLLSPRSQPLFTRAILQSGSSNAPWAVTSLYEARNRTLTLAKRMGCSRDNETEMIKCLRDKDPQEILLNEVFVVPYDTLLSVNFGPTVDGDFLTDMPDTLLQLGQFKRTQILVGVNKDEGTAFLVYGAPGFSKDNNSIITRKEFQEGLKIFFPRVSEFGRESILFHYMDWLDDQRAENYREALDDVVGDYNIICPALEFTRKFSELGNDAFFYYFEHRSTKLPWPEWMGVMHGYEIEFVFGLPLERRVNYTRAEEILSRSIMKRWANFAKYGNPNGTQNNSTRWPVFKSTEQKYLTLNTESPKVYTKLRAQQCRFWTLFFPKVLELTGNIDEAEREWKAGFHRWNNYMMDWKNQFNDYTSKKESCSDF

| SMILES | inhibition at 9 µM [1, 4] | inhibition at 9 µM [1, 5] | inhibition at 9 µM [2, 6] | inhibition at 9 µM [2, 7] | inhibition at 0.9 µM [1, 8] | inhibition at 90 µM ([2]; supplement csv) | inhibition at 900 µM ([2]; supplement csv) | inhibition at 0.9 µM [2, 9] | reaction time (time for reaching the plateau) [3] |
| --- | --- | --- | --- | --- | --- | --- | --- | --- | --- |
| Clc1cc(CNCCCCCCNc2ncccn2)cc(Cl)n1 [Compound 21, N^1-((2,6-Dichloropyridin-4-yl)methyl)-N^6-(pyrimidin-2-yl)hexane-1,6-diamine] | 26.8 ± 0.4% | 26.8 ± 0.4% | 18.5 ± 1.8% | 18.5 ± 1.8% |  |  |  |  |  |
| Brc1ccc(CNCCCCCNc2ccccn2)cc1 [Compound 24, N^1-(4-Bromobenzyl)-N^5-(pyridin-2-yl)pentane-1,5-diamine] | 56.4 ± 1.6% | 12.1 ± 4.6% | 18.2 ± 3.5% | 18.2 ± 3.5% | 12.1 ± 4.6% | 56.4 ± 1.6% |  |  |  |
| Clc1ccc(CNCCCCCCNc2ccccn2)cc1 [Compound 27, N^1-(4-Chlorobenzyl)-N^6-(pyridin-2-yl)hexane-1,6-diamine] | 73.2 ± 3.6% | 17.7 ± 5.2% | 27.7 ± 4.7% | 24 to 30% | 17.7 ± 5.2% | 73.2 ± 3.6% |  |  |  |
| COc1cc(CNCCCCCCNc2ccccn2)cc(OC)c1OC [Compound 29, N^1-(Pyridin-2-yl)-N^6-(3,4,5-trimethoxybenzyl)hexane-1,6-diamine] | 68.9 ± 4.1% | 19 ± 2.5% | 30.9 ± 1.1% | 24 to 30% | 19 ± 2.5% | 68.9 ± 4.1% |  |  |  |
| Oc1cccc(CNCCCCCCNc2ccccn2)c1 [Compound 31, 3-(((6-(Pyridin-2-ylamino)hexyl)amino)methyl)phenol] | 56 ± 3.8% | 19.1 ± 2.2% | 42.2 ± 2.2% | ~40% | 19.1 ± 2.2% | 56 ± 3.8% |  |  |  |
| Oc1cccc(CNCCCCCCNc2ccccn2)c1O [Compound 32, 3-(((6-(Pyridin-2-ylamino)hexyl)amino)methyl)benzene-1,2-diol] | 59.8 ± 1.5% | 11.5 ± 2.9% | 63.9 ± 2.2% | ~60% | 11.5 ± 2.9% | 59.8 ± 1.5% | 23.9 ± 1.5% | 23.9 ± 1.5% |  |
| Clc1cc(CNCCCCCCNc2ccccn2)cc(Cl)n1 [Compound 33, N^1-((2,6-Dichloropyridin-4-yl)methyl)-N^6-(pyridin-2-yl)hexane-1,6-diamine] | 68.3 ± 2.9% | 13 ± 0.7% | 40.6 ± 4.1% | ~40% | 13 ± 0.7% | 68.3 ± 2.9% | 6.2 ± 1.1% | 6.2 ± 1.1% |  |
| O=C1O[C@H]([C@@H](O)CO)C(O)=C1O [ascorbic acid, reference compound] |  |  |  |  |  |  |  |  | 2 min |
